According to ChEMBL document CHEMBL5729785, “Pyridazinones as PARP7 inhibtors” (2023):

Molecular target: T1, Protein mono-ADP-ribosyltransferase TIPARP (Homo sapiens, UniProt Q7Z3E1)
T1 sequence (Q7Z3E1 whole entry): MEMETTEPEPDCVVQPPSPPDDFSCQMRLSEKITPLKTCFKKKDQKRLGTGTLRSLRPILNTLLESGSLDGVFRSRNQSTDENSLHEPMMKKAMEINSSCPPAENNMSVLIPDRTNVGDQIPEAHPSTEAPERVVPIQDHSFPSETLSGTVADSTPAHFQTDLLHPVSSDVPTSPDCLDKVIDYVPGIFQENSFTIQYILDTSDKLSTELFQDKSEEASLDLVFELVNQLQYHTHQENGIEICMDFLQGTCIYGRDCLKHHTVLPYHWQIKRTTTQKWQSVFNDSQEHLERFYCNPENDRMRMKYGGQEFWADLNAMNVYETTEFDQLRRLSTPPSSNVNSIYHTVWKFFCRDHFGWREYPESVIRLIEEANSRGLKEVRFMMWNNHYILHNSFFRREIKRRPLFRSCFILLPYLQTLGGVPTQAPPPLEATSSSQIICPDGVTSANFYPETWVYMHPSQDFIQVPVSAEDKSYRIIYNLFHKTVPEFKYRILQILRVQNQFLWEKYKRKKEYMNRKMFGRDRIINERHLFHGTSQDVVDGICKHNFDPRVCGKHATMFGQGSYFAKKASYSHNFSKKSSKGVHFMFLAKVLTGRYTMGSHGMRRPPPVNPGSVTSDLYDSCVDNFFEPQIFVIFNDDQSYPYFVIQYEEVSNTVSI
Test: Enzymatic Assay: Displacement of Probe A, a biotinylated probe binding to the TIPARP active site, was measured using a time-resolved fluorescence energy transfer (TR-FRET) assay. 20 nL of a dose response curve of each test compound was spotted in black 384-well polystyrene proxiplates (Perkin Elmer) using a Mosquito (TTP Labtech). Reactions were performed in a 8 μl volume by adding 6 μL of TIPARP and Probe A in assay buffer (20 mM HEPES pH=8, 100 mM NaCl, 0.1% bovine serum albumin, 2 mM DTT and 0.002% Tween20), incubating with test compound at 25° C. for 30 min, then adding 2 μL of ULight-anti 6×His and LANCE Eu-W1024 labeled streptavidin (Perkin Elmer). The final concentrations of TIPARP and Probe A were 6 nM and 2 nM, respectively. The final concentration of ULight-anti 6×His and LANCE Eu-W1024 labeled streptavidin were 4 nM and 0.25 nM, respectively. Reactions were incubated at 25° C. for an additional 30 min, then read on an Envision platereader equipped with a LANCE/DELFIA top mirror (Perkin Elmer) using excitation of 320 nm and emission of 615 nm and 665 nM with a […]. The ratio of the 665/615 nm emission were calculated for each well to determine the amount of complex of TIPARP and Probe Ain each well. […]

- IC50: < 100 nM
Structure (SMILES): C[C@@H](CO[C@@H]1CCN(C2CCN(c3ncc(Br)cn3)CC2)C1=O)Nc1cn[nH]c(=O)c1C(F)(F)F
